Source: patent US8236984B2, “Compound and use thereof in the treatment of amyloidosis” (Pentraxin Therapeutics Ltd., priority 2007, dated 2012)
pIC50, pKd: −log10 of the molar value. “Also recorded” adds a separate entry of the source.

Tests used:
[1] = Solubility as noted for calorimetry; assay type: physicochemical; details: in words, reason ITC could not be performed
wild type transthyretin [2] = target: T1, wild type transthyretin (Homo sapiens, UniProt P02766); test: Mass spectrometric analysis of ligand dissociation under increasing cone voltage; assay type: binding; set-up: made in house
Excerpt: 4.3. Mass spectrometric analysis of dissociation of 4ajm15 from wild type and amyloidogenic variant transthyretin. ESMS spectra were acquired under increasing cone voltage conditions to induce stepwise dissociation of the ligand from wild type transthyretin and amyloidogenic variants V30M and L55P transthyretin. As the cone voltage increases splitting becomes apparent in the tetramer peaks, corresponding to apo (protein alone) and holo (protein+ligand) transthyretin as ligand begins to dissociate.
L55P transthyretin and [^15N, ^13C] wild type transthyretin in a 2 fold excess of 4ajm15. […] In spectrum β the onset of 4ajm15 dissociation from wild type tetramer is observed (a) while no ligand dissociation is observed from L55P transthyretin. Dissociation from wild type transthyretin progresses with increasing collisional energy in spectrum γ, but it is not until spectrum δ, where approximately 50% of the wild type is apo, that ligand dissociation from L55P transthyretin is observed (a).
V30M transthyretin and [^15N, ^13C] wild type transthyretin in a 2 fold excess of ligand. In A, at the onset of 4ajm15 dissociation (spectrum β) the peak height corresponding to apo V30M transthyretin is lower than that for wild type (labelled a and a respectively) for each charge state. At high energy level (γ), ligand dissociation from wild type is complete while a proportion of […] V30M remains (h). […]

transthyretin [3] = target: T2, transthyretin (Homo sapiens, UniProt P02766); test: Stopped flow analysis of the kinetics of binding by transthyretin; details: 2 μM protein, 10 μM ligand, PBS pH 7.4, 5% DMSO, 20° C.
T2 construct: Native tetrameric transthyretin was purified from fractionated human plasma; from tissue; host or cells: human plasma
Description: 3.2.2 Stopped flow analysis of the kinetics of 4ajm15 binding by transthyretin. The kinetics of transthyretin binding to 4ajm15 were evaluated with a Bio-Logic SFM-300 stopped flow device coupled to a fluorescence detection system (Claix, France) using a cell path length of 1.5 mm. The excitation wavelength was 280 nm and emission was measured at wavelengths greater than 320 nm using a cut off filter. The experiments were performed at 20° C. in PBS pH 7.4 containing 5% DMSO with a final protein concentration of 2 μM in the presence of 10 μM 4ajm15. The kinetic traces fit well to a single-exponential function with a time constant of 2.17 s (±0.02 s). Transthyretin thus binds 4ajm15 very rapidly at physiological pH with the plateau of the quenching reaction being reached after only ˜11 sec.

transthyretin Ile122 = transthyretin Ile122 (Homo sapiens, UniProt P02766); test: Displacement of 125I-T4 from transthyretin in whole serum; assay type: binding; details: read-out: IC50 for displacement of T4 from transthyretin Ile122 in serum; whole serum of heterozygous subjects, mean
Excerpt: (§1) 3.2.3.2. Quantitative studies in serum. […] The immunoprecipitate was recovered by centrifugation, washed twice with 0.1 M Tris, 0.1 M NaCl, pH 8.0 and counted.

transthyretin Met30 = transthyretin Met30 (Homo sapiens, UniProt P02766); test: as above; assay type: binding; details: read-out: IC50 for displacement of T4 from transthyretin Met30 in serum; whole serum of heterozygous subjects, mean
Excerpt: as §1

V30M transthyretin = target: T3, V30M transthyretin (Homo sapiens, UniProt P02766, V50M); test: Mass spectrometric analysis of subunit exchange; assay type: biochemical; details: 2-fold molar excess of ligand, data not shown
T3 construct: made in house
Description: (§2) 4.2 Mass spectrometric analysis of subunit exchange. Recombinant wild type, L55P and V30M transthyretin variants were biosynthetically labelled with isotopes [^15N] and [^15N, ^13C] as previously described (Keetch C A et al, 2005). Immediately prior to analysis, proteins were buffer exchanged into 20 mM ammonium acetate, pH 7.0 using Micro Biospin columns (Bio-Rad, UK). The subunit composition of transthyretin was monitored as a function of time by incubating an equimolar solution (4.4 μM) of [^15N] and [^15N, ^13C] labelled proteins in the presence of 2-fold molar excess of 4ajm15 in DMSO or 2.5% DMSO alone as a control. Each experiment was carried out in triplicate at room temperature and at 4° C. as well, since it is known that subunit exchange is accelerated at low temperatures. Nanoflow ESMS was performed on a QToF2 instrument (Waters/Micromass UK, Ltd.) modified for high mass operation (Sobott et al, (2002)) and calibrated externally using caesium iodide (100 mg/ml). Each solution, 1.5 μl, was electrosprayed from gold coated borosilicate capillaries prepared in-house as described (Nettleton E J, et al, 1998). […]

wild type transthyretin [4] = target: T1, wild type transthyretin; test: Mass spectrometric analysis of subunit exchange; assay type: biochemical; set-up: made in house; details: 4.4 μM labelled proteins, 2-fold molar excess of ligand, room temperature and 4° C.
Description: as §2

transthyretin [5] = target: T2, transthyretin; test: Isothermal titration calorimetry of transthyretin-ligand binding; details: ITC, Tris-NaCl pH 8.0, 2% DMSO, 37° C.
Description: 3.3.3 Isothermal titration calorimetry (itc) of transthyretin-mds84 ligand binding: Thermodynamic parameters of transthyretin-mds84 ligand binding were measured directly by isothermal titration calorimetry (VP-ITC, MicroCal LLC, Milton Keynes, UK). An initial injection of 1 μl of mds84 at 0.348 mM was made into transthyretin at a final concentration of 0.029 mM tetramer, followed, at 240 sec intervals, by 35 successive 8 μl injections. The diluent was Tris-NaCl pH 8.0 with 2% (v/v) DMSO. The sample cell was stirred at 310 rpm and cell contents were maintained at 37° C. After correction for volume displacement and plotting against the molar ratio of injected ligand to transthyretin tetramer, integration of the raw thermogram (FIG. 5, upper graph) yielded a binding isotherm (FIG. 5, lower graph) that was best fitted (determined by χ^2 analysis) to a model with a single set of identical sites by non-linear least squares analysis in ORIGIN v7.0 (MicroCal LLC).

[6] = target: L55P variant transthyretin (Homo sapiens, UniProt P02766, L75P); test: Differential scanning calorimetry of transthyretin with ligand; assay type: binding; details: five fold molar excess of ligand

Row | peak height of apo wild type transthyretin at onset of dissociation (spectrum β) (wild type transthyretin [2]; equimolar 4.4 μM with V30M, 2 fold excess of ligand) [%] | time constant of binding (single-exponential fit) (transthyretin [3]) [s] | time to plateau of the quenching reaction (transthyretin [3]) [s] | pIC50 (transthyretin Ile122) | pIC50 (transthyretin Met30) | subunit exchange of V30M transthyretin (V30M transthyretin) | enthalpy (ΔH) (transthyretin [5]) [kcal/mol] | pKd (transthyretin [5]; 0.029 mM tetramer, read-out: dissociation constant (Kd)) | Tm of L55P variant transthyretin with the ligand [6] [°C] | increase in Tm of L55P variant transthyretin [6] [°C] | SMILES | solubility [1] | relative binding avidities for ligand among transthyretin forms (wild type transthyretin [2]; wild type versus V30M and L55P, increasing cone voltage) | subunit exchange of wild type transthyretin (wild type transthyretin [4])
1 | ~75 | 2.17 | ~11 | 4.53 | 4.21 | Exactly the same effect | – | – | – | – | O=C(O)c1ccccc1Nc1cc(Cl)c(OCCCCCCCCCCCOc2c(Cl)cc(Nc3ccccc3C(=O)O)cc2Cl)c(Cl)c1 [4ajm15, 2,2′-(4,4′-(undecane-1,11-diylbis(oxy))bis(3,5-dichloro-4,1-phenylene))bis(azanediyl)dibenzoic acid] | limited solubility; also recorded: too insoluble | wild type transthyretin<V30M transthyretin<L55P transthyretin | prevents any subunit exchange; also recorded: almost complete absence of exchange after 7 days
2 | – | – | – | – | – | – | -7.95 | 6.30 | 98.3 | 5.9 | O=C(O)c1ccccc1Nc1cc(Cl)c(OCCCCCCCOc2c(Cl)cc(Nc3ccccc3C(=O)O)cc2Cl)c(Cl)c1 [mds84, 2,2′-(4,4′-(heptane-1,7-diylbis(oxy))bis(3,5-dichloro-4,1-phenylene))bis(azanediyl)dibenzoic acid] | – | – | –
